Here are results for one compound from patent US11878012B2, “Compositions and methods for treating traumatic brain injury” (Board of Regents, the University of Texas System, priority 2020, dated 2024).

Each structure is given as a SMILES string.

The test system of data set [1] is TRPC4/5 channels. The conditions noted are these: description from literature; cited from earlier work.
For data set [2] the following is noted: 2015, cited from earlier work.
Data set [3] has as its system DGGCs. The data set can be described thus: Patch-clamp / current-clamp recordings of DGGCs in hippocampal slices (action potentials, AHP, IM amplitude). The class given is cell-based, mice. Here is the method:
(§1) Hippocampal Slice Preparation. […] Hippocampal slices were maintained in oxygenated ACSF at 30° C. for 60 min and experiments were performed at 25° C.
For orientation: Patch clamp records ionic current or voltage across a cell membrane.

Data set [4] has as its system DGGCs. As to the kind of experiment: Ca2+ imaging with calcium green-1 in DGGCs of hippocampal slices, whole-cell mode. The class given is cell-based, mice. To be noted: M084 and ML204 together, 10 μm. As to the method: as §1
Ca2^+ Imaging. Concurrent with patch-clamp electrophysiology, neurons in slices were also imaged (Nikon FN-1, 40× water-immersion objective) via the fluorescent Ca^2+-reporter dye calcium green-1. As a hexapotassium salt, the dye (10 μm) was added to the intracellular patch pipette solution and neurons were patched under whole-cell clamp, as described above. Cells were loaded for 10 min before image acquisition. Fluorescence intensity was obtained using a SOLA Light Engine illumination source (Lumencor) with an output of 3.5 W through a 3-mm-diameter liquid light guide through a Nikon ET-GFP filter. Nikon Elements software was used for image acquisition through a QIClick CCD camera (QImaging). Images were acquired with an exposure time of 200 ms every 2 min using a single-channel, 12-bit rate and no binning. The shutter was closed between each acquisition. For each cell, the corrected total cell fluorescence was measured as the integrated density intensity—(cell area*mean background emission). Ca^2+ signals were measured as the change in fluorescence relative to the baseline fluorescence (ΔF/F0). Averages of four images were thresholded at 10%, masked using a highly averaged image of the cell, and encoded with a pseudocolor look-up table. Group cell fluorescence data were averaged in comparison with normalized intensity at each time point.

The target in data set [5] is T1, TRPC3 (Homo sapiens, UniProt Q13507).
T1 sequence (Q13507 1-921): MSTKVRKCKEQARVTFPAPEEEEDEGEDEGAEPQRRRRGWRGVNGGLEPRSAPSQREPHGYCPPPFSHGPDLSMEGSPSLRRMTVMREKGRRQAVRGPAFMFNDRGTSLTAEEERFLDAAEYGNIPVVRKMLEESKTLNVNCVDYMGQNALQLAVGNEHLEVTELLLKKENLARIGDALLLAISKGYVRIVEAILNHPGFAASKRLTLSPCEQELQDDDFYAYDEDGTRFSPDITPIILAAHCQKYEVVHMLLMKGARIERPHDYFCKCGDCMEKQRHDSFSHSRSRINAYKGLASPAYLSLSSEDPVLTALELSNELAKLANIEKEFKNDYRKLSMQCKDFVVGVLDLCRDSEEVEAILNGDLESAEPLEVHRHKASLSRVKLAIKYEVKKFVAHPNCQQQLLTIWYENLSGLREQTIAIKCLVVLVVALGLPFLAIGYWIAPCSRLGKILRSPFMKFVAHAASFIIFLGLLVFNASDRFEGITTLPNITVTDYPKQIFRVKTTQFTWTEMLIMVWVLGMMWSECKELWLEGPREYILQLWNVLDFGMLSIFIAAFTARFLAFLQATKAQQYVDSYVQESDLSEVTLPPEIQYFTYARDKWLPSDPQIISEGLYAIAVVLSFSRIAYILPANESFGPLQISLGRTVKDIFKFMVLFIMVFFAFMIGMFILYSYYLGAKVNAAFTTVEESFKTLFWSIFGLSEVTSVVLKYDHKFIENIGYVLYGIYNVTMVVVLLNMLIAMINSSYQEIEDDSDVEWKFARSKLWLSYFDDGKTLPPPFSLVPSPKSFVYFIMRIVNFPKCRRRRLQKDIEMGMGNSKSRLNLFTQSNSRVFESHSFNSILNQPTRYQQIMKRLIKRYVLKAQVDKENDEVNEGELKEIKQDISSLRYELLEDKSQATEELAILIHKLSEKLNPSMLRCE
The conditions noted are these: description; cited from earlier work.

The test system of data set [6] is pilocarpine-induced seizures. The data set can be described thus: Pilocarpine-induced chemoconvulsant seizure model. To be noted: M084 10 mg/kg 30 min before pilocarpine 280 mg/kg, n=8. The class given is in vivo, mice.
Experimental: After administration of scopolamine (1 mg/kg), control mice were pretreated with saline vehicle and then were administered pilocarpine (280 mg/kg) 30 min later.
The muscarinic agonist pilocarpine was used to induce seizures in vivo. Two-month-old mice were injected with scopolamine methylnitrate (1 mg/kg; MP Biomedicals) to block peripheral mAChRs 30 min before administration of pilocarpine hydrochloride (280 mg/kg; Sigma-Aldrich). Drugs were delivered via intraperitoneal injection in 0.9% sterile saline at a total volume equivalent to 1% of the mouse body weight. Control mice were given the same dose of scopolamine followed by vehicle saline 30 min later. […] Peak seizure activity was observed 60 min after pilocarpine delivery with occasional forelimb clonus.
[7] abbreviates: TRPC4/5 channels blocked, control or plus 77-LH-28-1 3 μM.

Turning to `CCCCNc1nc2ccccc2[nH]1` [M084, N-butyl-1H-benzimidazol-2-amine], the “effect on TRPC4/5 channels” value in data set [1] is on record as “potent inhibitor or antagonist”. Also, the “brain concentration at time of PTZ challenge” value in data set [2] (1 hour after M084 10 mg/kg s.c., inferred from Yang et al.) is “likely within the micromolar range”. Also, the blood-brain barrier crossing entry in data set [2] (Yang et al.) is on record as “crosses the blood-brain barrier”. The action potential threshold in data set [3] (M084 10 μm only, n=8 cells) is reported as −45.4±1.3 mV. In data set [3] (TRPC4/5 blockade with M084 10 μm, 77-LH-28-1 3 μm), the “action potential firing rate on M1R agonist” value is listed as “did not increase”. For the same compound, in data set [3] (setting [7]), the AHP amplitude is 13.2 ± 0.7 mV, the AHP area is 196.8 ± 13.3 ms* mV and the AHP decay turned out to be 14.8 ± 0.7 ms. The “membrane potential values (voltage floor), control ACSF vs 77-LH-28-1 3 μm” value in data set [3] (in presence of M084 10 μm) is “no significant differences”. In data set [4], the “maximum calcium-green 1 emission on muscarinic stimulation” value stood at 1.61±0.21 fold. Moreover, the “effect on TRPC3” value in data set [5] was “weak inhibitor or antagonist”. In addition, in data set [6], the “mean maximum Racine seizure stage” value stood at 1.1±0.5 and the status epilepticus entry is “not observed in any animal”.
